Laboratory results reported in patent US20060172023A1, “Use of pinolenic acid” (LODERS CROKLAAN B.V., priority 2005, published 2006).

Tested on: enteroendocrine STC1-1 cell line
Test: In-vitro relative CCK release from enteroendocrine cells (Example 4, RIA)
Type: cell-based
Conditions: 100 μM in free fatty acid form, 1 hour; for Relative amount of CCK released: measured in 6-fold
Method: The relative CCK release by a number of different compounds was determined in vitro an in-vitro trial to measure the effect of various free fatty acids on CCK release from intestinal cells.
Cells were routinely passaged upon reaching 70-80% confluency by washing the cell layer with PBS and incubating with a solution of trypsin-EDTA. Plating density of 2×10^6 cells by 75 cm^2 was used for routine subculture.
STC1 cells were seeded into 6-well culture plates and incubated with control culture medium, with or without the tested agents, for 1 hour. All agents were tested at a 100 μM concentration in the free fatty acid form. Since fatty acids were diluted into ethanol the effect of ethanol was tested and indicated the baseline CCK levels. […] Effects of bombesin was used as positive control. At the end of incubation the supernatant was collected, centrifuged and immediately frozen at −20° C. for RIA.
Cell viability was checked by microscopic analysis, analyzing DNA content which was measured by fluorometry after extraction of the culture cell contents, and in addition LDH release was measured.
CCK release was measured using a standard CCK RIA and effects of fatty acids were measured in 6-fold.

| Structure (SMILES) | Ability to induce CCK (in words) | Level of CCK relative to negative control capric acid | Relative amount of CCK released |
| --- | --- | --- | --- |
| CC/C=C\C/C=C\C/C=C\CCCC/C=C\CCCC(=O)O [juniperonic acid] | not able to induce high amounts of CCK | about 2 fold |  |
| CC/C=C\C/C=C\C/C=C\CCCCCCCC(=O)O [Alpha-linolenic acid 18:3, Alpha-linolenic acid] | good inducers of CCK |  | 177 |
| CCCCC/C=C\C/C=C\C/C=C\CCCCC(=O)O [Gamma-linolenic acid 18:3, Gamma-linolenic acid] | good inducers of CCK |  | 140 |
| CCCC\C=C/C=C/C=C\CCCCCCCC(=O)O [Punicic acid 18:3, Punicic acid] | good inducers of CCK |  | 320 |
| CCCCCCCC/C=C\CCCCCCCC(=O)O [Oleic acid 18:1, cis-9 octadecenoic acid] | not able to induce high amounts of CCK | about 2 fold | 90 |
| CCCCCCCCCC(=O)O [Capric acid] |  |  | 43 |
| CCCCCC=CC/C=C\CCCCCCCC(=O)O [Linoleic acid 18:2, cis-9,12 octadecadienoic acid] | not able to induce high amounts of CCK | about 2 fold | 68 |
| CCCCC/C=C\C/C=C\CCCC/C=C\CCCC(=O)O [sciadonic acid] | not able to induce high amounts of CCK | about 2 fold |  |
| CCCCCCCCC=CCC/C=C\CCCC(=O)O [taxoleic acid, cis-5,9 octadecadienoic acid] | not able to induce high amounts of CCK | about 2 fold |  |
| CCCC/C=C/C=C/C=C\CCCCCCCC(=O)O [Alpha-eleostearic acid 18:3, Alpha-eleostearic acid] | good inducers of CCK |  | 212 |
